A word on the IC50: it is the point on the concentration scale where inhibition reaches its midpoint.

Data set [1] deals with TALL-1. As to the kind of experiment: Anticancer activity against human TALL-1 cells assessed as cell number by coulter channelyzer. Format: functional, cell-based.
Data set [2] is described as follows: Metabolic stability in human liver microsomes assessed as fraction of 0.5 uM parent compound remaining after 10 mins. In kind it is ADME. The note with it: read-out: Stability. (Liver microsomes are vesicles of endoplasmic reticulum, rich in cytochrome P450 enzymes.)
Data set [3] is described as follows: Metabolic stability in mouse liver microsomes assessed as fraction of 0.5 uM parent compound remaining after 10 mins. In kind it is ADME. The note with it: read-out: Stability.
Data set [4] deals with TALL-1. Kind of data set: In vivo antitumor activity against human TALL-1 cells xenograft model assessed as tumor growth inhibition at 6 mg/kg, po qd for 10 days on - 2 days off - 5 days on. In kind it is functional. Conditions: read-out: TGI. (In general: In xenograft studies the graft and the host belong to different species.)
In data set [5] the test system is MDA-MB-157. As to the kind of experiment: In vivo antitumor activity against human MDA-MB-157 cells xenograft model assessed as tumor growth inhibition at 30 mg/kg, po qd for 10 days on - 2 days off - 5 days on. In kind it is functional. Conditions: read-out: TGI.
The subject of data set [6] is TALL-1. As to the kind of experiment: In vivo antitumor activity against human TALL-1 cells xenograft model assessed as tumor growth inhibition at 24 mg/kg, po qd for 10 days on - 2 days off - 5 days on. The note with it: read-out: TGI. Format: functional.
For data set [7], the system named is MDA-MB-157. Kind of data set: In vivo antitumor activity against human MDA-MB-157 cells xenograft model assessed as tumor growth inhibition at 15 mg/kg, po qd for 10 days on - 2 days off - 5 days on. Format: functional. Conditions: read-out: TGI.
Data set [8] concerns MDA-MB-157. Kind of data set: In vivo antitumor activity against human MDA-MB-157 cells xenograft model assessed as tumor growth inhibition at 7.5 mg/kg, po qd for 10 days on - 2 days off - 5 days on. In kind it is functional. The note with it: read-out: TGI.
The subject of data set [9] is TALL-1. Kind of data set: In vivo antitumor activity against human TALL-1 cells xenograft model assessed as tumor growth inhibition treated po qd for 10 days on - 2 days off - 5 days on. In kind it is functional, organism-based.

As for `CCC(CC)[C@H](C(N)=O)[C@@H](CC(C)C)C(=O)N[C@H]1N=C(c2ccccc2)c2ccccc2N(C)C1=O`, the IC50 in [1] was 3 nM. Further, the remaining at 10 min, 0.5 µM in data set [2] and in data set [3] was 2% each time.
As to `NC(=O)[C@@H](c1ncon1)[C@@H](CCC(F)(F)F)C(=O)N[C@H]1N=C(c2ccccc2)c2ccccc2NC1=O`, the remaining at 10 min, 0.5 µM in [2] was 84%; in [3] it was 83%.
For the compound `CN1C(=O)[C@@H](NC(=O)[C@H](CCC(F)(F)F)[C@@H](C(N)=O)c2cccc(OC(F)(F)F)c2)N=C(c2ccccc2)c2ccccc21`, in data set [1], the IC50 is 26 nM. Also, the remaining at 10 min, 0.5 µM in data set [2] was 100%; in data set [3], 82%.
The matching figures for `CN1C(=O)[C@@H](NC(=O)[C@H](CCC(F)(F)F)[C@@H](C(N)=O)c2ccc(F)cc2F)N=C(c2ccccc2)c2ccccc21`: 4 nM, 100% and 31%.
As to `CN1C(=O)[C@@H](NC(=O)[C@H](CCC(F)(F)F)[C@@H](C(N)=O)c2ccccc2)N=C(c2ccccc2)c2ccccc21`, the inhibition in vivo at 6 mg/kg in data set [4] was 71%. In data set [1], the IC50 turned out to be 4 nM. Besides, the inhibition in vivo at 30 mg/kg in [5] turned out to be 99%. Besides, the remaining at 10 min, 0.5 µM in [2] came out at 95%; in [3], 74%. Further, the inhibition in vivo at 24 mg/kg in [6] is 102%. The inhibition in vivo at 15 mg/kg in [7] worked out at 76%. Moreover, the inhibition in vivo at 7.5 mg/kg in data set [8] came out at 63%. The inhibition result in data set [9] is “Dose-dependent effect”.
Turning to `COc1ccc([C@H](C(N)=O)[C@@H](CCC(F)(F)F)C(=O)N[C@H]2N=C(c3ccccc3)c3ccccc3N(C)C2=O)cc1`, the half-maximal inhibitory concentration (IC50) in data set [1] came to 4 nM. Further, the values for the remaining at 10 min, 0.5 µM in data set [2] and in data set [3] were 62% and 5%, respectively.
For the compound `CCC(CC)[C@H](C(N)=O)[C@@H](CCC(F)(F)F)C(=O)N[C@H]1N=C(c2ccccc2)c2ccccc2N(C)C1=O`, the figures for the remaining at 10 min, 0.5 µM in data set [2] and in data set [3] were 5% and 7%, respectively.
For `Cc1cc([C@H](C(N)=O)[C@@H](CCC(F)(F)F)C(=O)N[C@H]2N=C(c3ccccc3)c3ccccc3N(C)C2=O)no1`, in that order: 94% and 10%.
For `NC(=O)[C@@H](c1cocn1)[C@@H](CCC(F)(F)F)C(=O)N[C@H]1N=C(c2ccccc2)c2ccccc2NC1=O`, in that order: 86% and 99%.
For the compound `CN1C(=O)[C@@H](NC(=O)[C@H](CCC(F)(F)F)[C@@H](C(N)=O)c2ccc(F)c(F)c2)N=C(c2ccccc2)c2ccccc21`, the half-maximal inhibitory concentration (IC50) in data set [1] was 4 nM. Also, the results for the remaining at 10 min, 0.5 µM in data set [2] and in [3] were 94% and 29%, respectively.
For `CN1C(=O)[C@@H](NC(=O)[C@H](CCC(F)(F)F)[C@@H](C(N)=O)c2cccc(S(C)(=O)=O)c2)N=C(c2ccccc2)c2ccccc21`, the remaining at 10 min, 0.5 µM in data set [2] worked out at 93%; in data set [3], 62%.
With `CN1C(=O)[C@@H](NC(=O)[C@H](CCC(F)(F)F)[C@@H](C(N)=O)c2ccc(F)cc2)N=C(c2ccccc2)c2ccccc21`, the half-maximal inhibitory concentration (IC50) in data set [1] was 5 nM. The remaining at 10 min, 0.5 µM in data set [2] is 95%; in [3] it was 65%.
For `Cc1cccc([C@H](C(N)=O)[C@@H](CCC(F)(F)F)C(=O)N[C@H]2N=C(c3ccccc3)c3ccccc3N(C)C2=O)c1`, in that order: 15 nM, 23% and 7%.
For the compound `CN1C(=O)[C@@H](NC(=O)[C@H](CCC(F)(F)F)[C@@H](C(N)=O)c2cccc(C(F)(F)F)c2)N=C(c2ccccc2)c2ccccc21`, the IC50 in data set [1] was 13 nM. Moreover, the remaining at 10 min, 0.5 µM in data set [2] amounted to 92%; in data set [3], 59%.
For `Cc1nocc1[C@H](C(N)=O)[C@@H](CCC(F)(F)F)C(=O)N[C@H]1N=C(c2ccccc2)c2ccccc2N(C)C1=O`, the remaining at 10 min, 0.5 µM in data set [2] came out at 78%; in [3], 23%.
In the case of `NC(=O)[C@@H](c1cnoc1)[C@@H](CCC(F)(F)F)C(=O)N[C@H]1N=C(c2ccccc2)c2ccccc2NC1=O`, the remaining at 10 min, 0.5 µM in [2] came out at 96%; in data set [3] it was 100%.
For the compound `CCC(CC)[C@H](C(N)=O)[C@@H](CC(C)(C)C)C(=O)N[C@H]1N=C(c2ccccc2)c2ccccc2N(C)C1=O`, the figures for the remaining at 10 min, 0.5 µM in data set [2] and in data set [3] were 1% and 6%, respectively.
For `Cc1nc([C@H](C(N)=O)[C@@H](CCC(F)(F)F)C(=O)N[C@H]2N=C(c3ccccc3)c3ccccc3N(C)C2=O)no1`, in that order: 100% and 24%.
Consider `CN1C(=O)[C@@H](NC(=O)[C@H](CCC(F)(F)F)[C@@H](C(N)=O)c2cc(F)cc(F)c2)N=C(c2ccccc2)c2ccccc21`, for which the IC50 in data set [1] came out at 4 nM. Besides, the remaining at 10 min, 0.5 µM in data set [2] stood at 94%; in data set [3], 21%.
For the compound `CCC[C@H](C(N)=O)[C@@H](CC(F)(F)F)C(=O)N[C@H]1N=C(c2ccccc2)c2ccccc2N(C)C1=O`, the half-maximal inhibitory concentration (IC50) in [1] was 158 nM. Further, the remaining at 10 min, 0.5 µM was 45% in data set [2] and 51% in [3].

The record behind these values is ChEMBL document CHEMBL3407492, “BMS-871: a novel orally active pan-Notch inhibitor as an anticancer agent” (Bioorg Med Chem Lett, 2015).
